Results: US20090005363A1, “Organic Compounds” (priority 2005, published 2009)

The molecules below were run against mGluR5 (Homo sapiens, UniProt P41594) (assay: inhibition of the glutamate induced elevation of intracellular Ca2+ concentration). Conditions: inhibition of glutamate induced elevation of intracellular Ca2+ concentration at 10 μM.
Sequence of mGluR5 (P41594 21-1180 isoform P41594-2 limits assumed): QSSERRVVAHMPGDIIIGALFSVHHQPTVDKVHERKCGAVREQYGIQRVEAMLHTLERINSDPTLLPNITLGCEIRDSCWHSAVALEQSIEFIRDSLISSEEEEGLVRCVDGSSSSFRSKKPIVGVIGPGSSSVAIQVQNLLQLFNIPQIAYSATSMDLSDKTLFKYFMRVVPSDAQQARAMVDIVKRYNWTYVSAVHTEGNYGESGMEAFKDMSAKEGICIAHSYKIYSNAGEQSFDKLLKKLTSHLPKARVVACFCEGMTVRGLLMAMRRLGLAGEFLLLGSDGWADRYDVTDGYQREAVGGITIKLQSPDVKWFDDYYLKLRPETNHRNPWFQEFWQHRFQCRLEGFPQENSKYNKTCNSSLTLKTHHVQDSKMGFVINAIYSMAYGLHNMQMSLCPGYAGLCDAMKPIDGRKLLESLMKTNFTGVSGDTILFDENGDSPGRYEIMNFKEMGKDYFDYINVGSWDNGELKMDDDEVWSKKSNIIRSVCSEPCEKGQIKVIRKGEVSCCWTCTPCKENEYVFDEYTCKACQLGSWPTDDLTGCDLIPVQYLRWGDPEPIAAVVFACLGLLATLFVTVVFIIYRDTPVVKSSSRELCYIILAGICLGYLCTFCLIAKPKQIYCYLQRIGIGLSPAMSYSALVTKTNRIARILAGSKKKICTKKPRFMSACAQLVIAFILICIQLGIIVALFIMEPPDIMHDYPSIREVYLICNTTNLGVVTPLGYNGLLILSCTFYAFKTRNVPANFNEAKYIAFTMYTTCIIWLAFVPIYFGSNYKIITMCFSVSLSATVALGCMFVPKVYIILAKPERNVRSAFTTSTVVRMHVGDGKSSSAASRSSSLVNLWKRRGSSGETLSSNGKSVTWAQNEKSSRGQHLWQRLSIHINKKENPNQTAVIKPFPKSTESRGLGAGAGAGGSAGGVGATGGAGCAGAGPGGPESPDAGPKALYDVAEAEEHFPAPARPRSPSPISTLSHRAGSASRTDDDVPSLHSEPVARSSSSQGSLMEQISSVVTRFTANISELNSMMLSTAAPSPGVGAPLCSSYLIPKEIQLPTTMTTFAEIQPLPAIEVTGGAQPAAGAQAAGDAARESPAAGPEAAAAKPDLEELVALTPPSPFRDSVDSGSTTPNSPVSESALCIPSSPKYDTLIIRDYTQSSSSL
From the text: This can be determined in vitro for example at recombinant human metabotropic glutamate receptors, especially PLC-coupled subtypes thereof such as mGluR5, using different procedures like, for example, measurement of the inhibition of the agonist induced elevation of intracellular Ca^2+ concentration in accordance with L. P. Daggett et al., Neuropharm.

SMILES | mGluR5 Activity inh. at 10 μM [%]
C/C=C\C1CCCCN1C(=O)c1cnc(Nc2ccc(C)nc2)c(Cl)c1 (centres unmarked) [Compound 4.56, [5-Chloro-6-(6-methyl-pyridin-3-ylamino)-pyridin-3-yl]-[((Z)-2-propenyl)-piperidin-1-yl]-methanone] | 97

Same assay, conditions: read-out: mGluR5 Activity inh. at 10 μM [%]

SMILES | inhibition at 10 µM [%]
Cc1ccc(Nc2ncc(C(=O)N3CCCCC3c3ccccn3)cc2Cl)cn1 (centres unmarked) [Compound 4.42, [5-Chloro-6-(6-methyl-pyridin-3-ylamino)-pyridin-3-yl]-(3,4,5,6-tetrahydro-2H-[2,2′]bipyridinyl-1-yl)-methanone] | 98
Cc1ccc(Nc2ncc(C(=O)N3CCCCC3c3cccnc3)cc2Cl)cn1 (centres unmarked) [Compound 4.43, [5-Chloro-6-(6-methyl-pyridin-3-ylamino)-pyridin-3-yl]-(3,4,5,6-tetrahydro-2H-[2,3′]bipyridinyl-1-yl)-methanone] | 100
Cc1ccc(Nc2ncc(C(=O)N3CCCCC3C3CCCO3)cc2Cl)cn1 (centres unmarked) [Compound 4.44, [5-Chloro-6-(6-methyl-pyridin-3-ylamino)-pyridin-3-yl]-[2-(tetrahydro-furan-2-yl)-piperidin-1-yl]-methanone] | 99
Cc1ccc(Nc2ncc(C(=O)N3CCCCC3c3ccc(C)o3)cc2Cl)cn1 (centres unmarked) [Compound 4.45, [5-Chloro-6-(6-methyl-pyridin-3-ylamino)-pyridin-3-yl]-[2-(5-methyl-furan-2-yl)-piperidin-1-yl]-methanone] | 90
Cc1ccc(Nc2ncc(C(=O)N3CCCCC3c3ncco3)cc2Cl)cn1 (centres unmarked) [Compound 4.46, [5-Chloro-6-(6-methyl-pyridin-3-ylamino)-pyridin-3-yl]-(2-oxazol-2-yl-piperidin-1-yl)-methanone] | 94
Cc1ccc(Nc2ncc(C(=O)N3CCCCC3CCCl)cc2Cl)cn1 (centres unmarked) [Compound 4.47, [2-(2-Chloro-ethyl)-piperidin-1-yl]-[5-chloro-6-(6-methyl-pyridin-3-ylamino)-pyridin-3-yl]-methanone] | 97
Cc1ccc(Nc2ncc(C(=O)N3C(C)CCCC3C)cc2Cl)cn1 (centres unmarked) [Compound 4.48, [5-Chloro-6-(6-methyl-pyridin-3-ylamino)-pyridin-3-yl]-(2,6-dimethyl-piperidin-1-yl)-methanone] | 99
Cc1ccc(Nc2ncc(C(=O)N3C(C)(C)CCCC3(C)C)cc2Cl)cn1 [Compound 4.49, [5-Chloro-6-(6-methyl-pyridin-3-ylamino)-pyridin-3-yl]-(2,2,6,6-tetramethyl-piperidin-1-yl)-methanone] | 66
CCCC1CCCC(C)N1C(=O)c1cnc(Nc2ccc(C)nc2)c(Cl)c1 (centres unmarked) [Compound 4.50, [5-Chloro-6-(6-methyl-pyridin-3-ylamino)-pyridin-3-yl]-(2-methyl-6-propyl-piperidin-1-yl)-methanone] | 98
CCC[C@@H]1CCC[C@@H](CC)N1C(=O)c1cnc(Nc2ccc(C)nc2)c(Cl)c1 [Compound 4.51, [5-Chloro-6-(6-methyl-pyridin-3-ylamino)-pyridin-3-yl]-((2R,6R)-2-ethyl-6-propyl-piperidin-1-yl)-methanone] | 96
CCCC1CCC(C)CN1C(=O)c1cnc(Nc2ccc(C)nc2)c(Cl)c1 (centres unmarked) [Compound 4.52, [5-Chloro-6-(6-methyl-pyridin-3-ylamino)-pyridin-3-yl]-(5-methyl-2-propyl-piperidin-1-yl)-methanone] | 96
CC[C@@H]1CCCCN1C(=O)c1cnc(Nc2ccc(Cl)cc2)c(Cl)c1 [Compound 4.54, [5-Chloro-6-(4-chloro-phenylamino)-pyridin-3-yl]-((R)-2-ethyl-piperidin-1-yl)-methanone] | 97
C=CC1CCCCN1C(=O)c1cnc(Nc2ccc(C)nc2)c(Cl)c1 (centres unmarked) [Compound 4.55, [5-Chloro-6-(6-methyl-pyridin-3-ylamino)-pyridin-3-yl]-(2-vinyl-piperidin-1-yl)-methanone] | 96
CCC=C1CCCN(C(=O)c2cnc(Nc3ccc(C)nc3)c(Cl)c2)C1 [Compound 4.58, [5-Chloro-6-(6-methyl-pyridin-3-ylamino)-pyridin-3-yl]-[3-propylidene-piperidin-1-yl]-methanone] | 93
CCOCC1CCCCN1C(=O)c1cnc(Nc2ccc(C)nc2)c(Cl)c1 (centres unmarked) [Compound 4.60, [5-Chloro-6-(6-methyl-pyridin-3-ylamino)-pyridin-3-yl]-(2-ethoxymethyl-piperidin-1-yl)-methanone] | 97
Cc1ccc(Nc2ncc(C(=O)N3CCCCC3CCO)cc2Cl)cn1 (centres unmarked) [Compound 4.61, [5-Chloro-6(6-methyl-pyridin-3-ylamino)-pyridin-3-yl]-[2-(2-hydroxy-ethyl)-piperidin-1-yl]-methanone] | 79
CCCC1CCC(F)CN1C(=O)c1cnc(Nc2ccc(C)nc2)c(Cl)c1 (centres unmarked) [Compound 4.62, [5-Chloro-6-(6-methyl-pyridin-3-ylamino)-pyridin-3-yl]-(5-fluoro-2-propyl-piperidin-1-yl)-methanone] | 99
Cc1ccc(Nc2ncc(C(=O)N3CCCCC3C(F)C(C)F)cc2Cl)cn1 (centres unmarked) [Compound 4.63, [5-Chloro-6-(6-methyl-pyridin-3-ylamino)-pyridin-3-yl]-[2-(1,2-difluoro-propyl)-piperidin-1-yl]-methanone] | 100
Cc1ccc(Nc2ncc(C(=O)N3CCCCC3CC(C)F)cc2Cl)cn1 (centres unmarked) [Compound 4.64, [5-Chloro-6-(6-methyl-pyridin-3-ylamino)-pyridin-3-yl]-[2-(2-fluoro-propyl)-piperidin-1-yl]-methanone] | 99

SMILES | inhibition at 10 µM [%]
CCC1OCCCCN1C(=O)c1cnc(Nc2ccc(C)nc2)c(Cl)c1 (centres unmarked) [Compound 4.65, [5-Chloro-6-(6-methyl-pyridin-3-ylamino)-pyridin-3-yl]-(2-ethyl-[1,3]oxazepan-3-yl)-methanone] | 83
CCCC1OCCCCN1C(=O)c1cnc(Nc2ccc(C)nc2)c(Cl)c1 (centres unmarked) [Compound 4.66, [5-Chloro-6-(6-methyl-pyridin-3-ylamino)-pyridin-3-yl]-(2-propyl-[1,3]oxazepan-3-yl)-methanone] | 91
CCC(CC)C1OCCCCN1C(=O)c1cnc(Nc2ccc(C)nc2)c(Cl)c1 (centres unmarked) [Compound 4.67, [5-Chloro-6-(6-methyl-pyridin-3-ylamino)-pyridin-3-yl]-[2-(1-ethyl-propyl)-[1,3]oxazepan-3-yl]-methanone] | 95
CCCC1OCCCN1C(=O)c1cnc(Nc2ccc(C)nc2)c(Cl)c1 (centres unmarked) [Compound 4.68, [5-Chloro-6-(6-methyl-pyridin-3-ylamino)-pyridin-3-yl]-(2-propyl-[1,3]oxazinan-3-yl)-methanone] | 99
CCC(CC)C1OCCCN1C(=O)c1cnc(Nc2ccc(C)nc2)c(Cl)c1 (centres unmarked) [Compound 4.69, [5-Chloro-6-(6-methyl-pyridin-3-ylamino)-pyridin-3-yl]-[2-(1-ethyl-propyl)-[1,3]oxazinan-3-yl]-methanone] | 99
CCCCC1OCCCN1C(=O)c1cnc(Nc2ccc(C)nc2)c(Cl)c1 (centres unmarked) [Compound 4.70, (2-Butyl-[1,3]oxazinan-3-yl)-[5-chloro-6-(6-methyl-pyridin-3-ylamino)-pyridin-3-yl]-methanone] | 96
COCCC1CCCCN1C(=O)c1cnc(Nc2ccc(C)nc2)c(Cl)c1 (centres unmarked) [Compound 4.71, [5-Chloro-6-(6-methyl-pyridin-3-ylamino)-pyridin-3-yl]-[2-(2-methoxy-ethyl)-piperidin-1-yl]-methanone] | 99
Cc1ccc(Nc2ncc(C(=O)N3CCCC3c3ccccc3)cc2Cl)cn1 (centres unmarked) [Compound 4.72, [5-Chloro-6-(6-methyl-pyridin-3-ylamino)-pyridin-3-yl]-(2-phenyl-pyrrolidin-1-yl)-methanone] | 97
Cc1ccc(Nc2ncc(C(=O)N3CCCC3c3ccccn3)cc2Cl)cn1 (centres unmarked) [Compound 4.73, [5-Chloro-6-(6-methyl-pyridin-3-ylamino)-pyridin-3-yl]-(2-pyridin-2-yl-pyrrolidin-1-yl)-methanone] | 72
CCO[C@@H]1CCCN1C(=O)c1cnc(Nc2ccc(C)nc2)c(Cl)c1 [Compound 4.74, [5-Chloro-6-(6-methyl-pyridin-3-ylamino)-pyridin-3-yl]-((R)-2-ethoxy-pyrrolidin-1-yl)-methanone] | 92
Cc1ccc(Nc2ncc(C(=O)N3CCCC3c3ccc(C)s3)cc2Cl)cn1 (centres unmarked) [Compound 4.75, [5-Chloro-6-(6-methyl-pyridin-3-ylamino)-pyridin-3-yl]-[2-(5-methyl-thiophen-2-yl)-pyrrolidin-1-yl]-methanone] | 96
CCCC1CCCCCN1C(=O)c1cnc(Nc2ccc(C)nc2)c(Cl)c1 (centres unmarked) [Compound 4.76, [5-Chloro-6-(6-methyl-pyridin-3-ylamino)-pyridin-3-yl]-(2-propyl-azepan-1-yl)-methanone] | 92
CCCC1COCCN1C(=O)c1cnc(Nc2ccc(C)nc2)c(Cl)c1 (centres unmarked) [Compound 4.77, [5-Chloro-6-(6-methyl-pyridin-3-ylamino)-pyridin-3-yl]-(3-propyl-morpholin-4-yl)-methanone] | 100
O=C(c1cnc(Nc2ccc(Cl)cc2)c(Cl)c1)N1CCCCCC1 [Compound 5.1, Azepan-1-yl-[5-chloro-6-(4-chloro-phenylamino)-pyridin-3-yl]-methanone] | 98
O=C(c1cnc(Nc2ccc(Cl)cc2)nc1)N1CCCCCC1 [Compound 5.3, Azepan-1-yl-[2-(4-chloro-phenylamino)-pyrimidin-5-yl]-methanone] | 87
O=C(c1cnc(Nc2ccc(Cl)cc2)nc1)N1CCCCC1 [Compound 5.4, [2-(4-Chloro-phenylamino)-pyrimidin-5-yl]-piperidin-1-yl-methanone] | 83
COc1cc(C(=O)N2CCCCCC2)cnc1Nc1ccc(Cl)cc1 [Compound 6.1, Azepan-1-yl-[6-(4-chloro-phenylamino)-5-methoxy-pyridin-3-yl]-methanone] | 97
COc1cc(C(=O)N2CCCCC2)cnc1Nc1ccc(Cl)cc1 [Compound 6.3, [6-(4-Chloro-phenylamino)-5-methoxy-pyridin-3-yl]-piperidin-1-yl-methanone] | 95
